In US9686985B2, “Fungicide N-cycloalkyl-N-bicyclicmethylene-carboxamide derivatives” (BAYER INTELLECTUAL PROPERTY GMBH, priority 2012, dated 2017):

Assays:
[1] = test system: Fusarium nivale (var. majus); assay: Example P: in vivo preventive test on Fusarium nivale (wheat); conditions: table P, 500 ppm, evaluated 5 days after inoculation
Experimental: Example P: In Vivo Preventive Test on Fusarium nivale (Wheat) [table] To produce a suitable preparation of active compound, 1 part by weight of active compound or active compound combination is mixed with the stated amounts of solvent and emulsifier, and the concentrate is diluted with water to the desired concentration. To test for preventive activity, young plants are sprayed with the preparation of active compound or active compound combination at the stated rate of application. After the spray coating has been dried, the plants are slightly injured by using a sandblast and afterwards they are sprayed with a conidia suspension of Fusarium nivale (var. majus). The plants are placed in the greenhouse under a translucent incubation cabinet at a temperature of approximately 10° C. and a relative atmospheric humidity of approximately 100%.

Leptosphaeria nodorum = assay: Example J: in vivo preventive test on Leptosphaeria nodorum (wheat); conditions: table J, 500 ppm, evaluated 8 days after inoculation
Experimental: Example J: In Vivo Preventive Test on Leptosphaeria nodorum Test (Wheat) [table] To produce a suitable preparation of active compound, 1 part by weight of active compound or active compound combination is mixed with the stated amounts of solvent and emulsifier, and the concentrate is diluted with water to the desired concentration. To test for preventive activity, young plants are sprayed with the preparation of active compound or active compound combination at the stated rate of application. After the spray coating has been dried, the plants are sprayed with a spore suspension of Leptosphaeria nodorum. The plants remain for 48 hours in an incubation cabinet at approximately 20° C. and a relative atmospheric humidity of approximately 100%. The plants are placed in the greenhouse at a temperature of approximately 22° C. and a relative atmospheric humidity of approximately 80%.

| Structure (SMILES) | Efficacy [1] [%] | Efficacy (Leptosphaeria nodorum) [%] |
| --- | --- | --- |
| Cn1nc(C(F)F)c(C(=O)N(CC2CC(C)(C)Oc3ccccc32)C2CC2)c1F (stereo not shown) [I.33] | 100 | 100 |
| CC(C1CCCc2ccccc21)N(C(=O)c1c(C(F)F)nn(C)c1F)C1CC1 (stereo not shown) [I.23] | 100 | 100 |
